Measured values taken from article PMC8840619, “Conjugation of Palbociclib with MHI-148 Has an Increased Cytotoxic Effect for Breast Cancer Cells and an Altered Mechanism of Action” (Molecules, 2022).
Where two headings read alike, the source gives them in different places.

Assays:
[1] = test system: 51D1.3; experiment: [3H]-thymidine incorporation cell proliferation assay; type: cell-based, Chinese hamster; conditions: 3 days of treatment, mean ± SEM
Procedure: (§1) As described previously, 3000 cells per well were seeded in 96-well plates and incubated in the presence of varying concentrations of drugs for three days. Cell proliferation was measured by thymidine uptake assay, cell growth by sulforhodamine B (SRB) colorimetric assay, and cell viability by WST-1 assay, as previously described.
(§2) Briefly, for the proliferation assay, [^3H]-thymidine (0.04 μCi) was added to each well and plates were incubated for 5 h, after which the cells were harvested onto glass–fiber filters using an automated TomTec harvester. Filters were incubated with Betaplate Scint and [^3H]-thymidine incorporation was measured in a Trilux/Betaplate counter. Cell proliferation was determined by the percentage incorporation of [^3H]-thymidine.

[2] = test system: 51D1; experiment: as above; type: cell-based, Chinese hamster; conditions: 3 days of treatment, mean ± SEM
Procedure: as §1, §2

[3] = test system: 51D1.3; experiment: WST-1 cell viability assay; type: cell-based, Chinese hamster; conditions: for IC50: 3 days of treatment, mean ± SEM; for EC50: Supplementary Table S1
Procedure: as §1
(§3) For viability, […] activity was measured using a water-soluble tetrazolium salt (WST-1) (purchased from Roche, Basel, Switzerland) after drug treatment for 3 days. The stable tetrazolium salt WST-1 is cleaved to a soluble formazan by a complex cellular mechanism that occurs primarily at the cell surface. This bio-reduction is largely dependent on the glycolytic production of NAD(P)H in viable cells. Therefore, the amount of formazan dye formed directly correlates with the number of metabolically active cells in the culture.

[4] = test system: 51D1; experiment: WST-1 cell viability assay; type: cell-based, Chinese hamster; conditions: for IC50: 3 days of treatment, mean ± SEM; for EC50: Supplementary Table S1
Procedure: as §1, §3

[5] = test system: 51D1.3; experiment: SRB cell growth assay; type: cell-based, Chinese hamster; conditions: 3 days of treatment, mean ± SEM
Procedure: as §1
(§4) The SRB colorimetric assay, which is based on the measurement of cellular protein content, was used to measure cell density. After drug treatment for 3 days, cells were fixed with 10% (wt/vol) trichloroacetic acid and stained for 30 min, and the excess dye was removed by washing repeatedly with 1% (vol/vol) acetic acid. The protein-bound dye was dissolved in Tris base solution (10 mM) for optical density determination at 510 nm using a microplate reader. Optimal cell densities were previously determined to select initial cell densities that ensured that cells were in logarithmic phase for the experiments.

[6] = test system: 51D1; experiment: SRB cell growth assay; type: cell-based, Chinese hamster; conditions: 3 days of treatment, mean ± SEM
Procedure: as §1, §4

[7] = test system: HEK293; experiment: SRB cell growth assay; type: cell-based, human; conditions: 3 days of treatment, mean ± SEM
Procedure: as §1, §4

[8] = test system: MDA-MB-231; experiment: SRB cell growth assay; type: cell-based, human; conditions: for IC50: 3 days of treatment, mean ± SEM
Procedure: as §1, §4

[9] = test system: MCF-7; experiment: SRB cell growth assay; type: cell-based, human; conditions: for IC50: 3 days of treatment, mean ± SEM
Procedure: as §1, §4

[10] = test system: HEK293; experiment: [3H]-thymidine incorporation cell proliferation assay; type: cell-based, human; conditions: 3 days of treatment, mean ± SEM
Procedure: as §1, §2

[11] = test system: MDA-MB-231; experiment: as above; type: cell-based, human; conditions: for IC50: MDA-MB-231, 3 days of treatment, mean ± SEM
Procedure: as §1, §2

[12] = test system: MCF-7; experiment: as above; type: cell-based, human; conditions: 3 days of treatment, mean ± SEM
Procedure: as §1, §2

[13] = Absorbance spectra in DMSO; type: physicochemical; conditions: 25 °C
Procedure: The absorbance and fluorescence emission spectra of up to 7 three-fold serial dilutions of MHI-148 and MHI-palbociclib in DMSO, ranging from […], were acquired at 25 °C.
• (a) Absorbance spectra of the test compound solutions (200 μL) plated in a 96-well polystyrene flat-bottom transparent microplate were acquired on a quad monochromator-equipped microplate reader Enspire 2300 (Perkin-Elmer; Singapore) from 650 nm to 900 nm in 1 nm increments. • (b) Fluorescence emission spectra of the compound solutions in a 2 mL semi-micro quartz cuvette were measured on a FP-8600 spectrofluorometer (JASCO; Japan) between 790 nm and 850 nm in 1 nm increments at the excitation wavelength of 780 nm. The fluorescence emission was measured at a high sensitivity of the instrument, with an excitation and emission bandwidth of 5 nm, a 50 ms response time, and a scan speed of 1000 nm per minute.

[14] = test system: HEK293; experiment: WST-1 cell viability assay; type: cell-based, human; conditions: for IC50: 3 days of treatment, mean ± SEM; for EC50: Supplementary Table S1
Procedure: as §1, §3

[15] = test system: MDA-MB-231; experiment: WST-1 cell viability assay; type: cell-based, human; conditions: for IC50: 3 days of treatment, mean ± SEM; for EC50: Supplementary Table S1
Procedure: as §1, §3

[16] = test system: MCF-7; experiment: WST-1 cell viability assay; type: cell-based, human; conditions: for IC50: 3 days of treatment, mean ± SEM; for EC50: MCF7, Supplementary Table S1
Procedure: as §1, §3

[17] = test system: MDA-MB-231 cells; experiment: Flow cytometry cell cycle analysis (DNA content, PI); type: cell-based, human; conditions: 500 nM for 24 h, untreated cells 48%
Procedure: As previously described, cells (1 × 10^6 cells) were grown in six-well plates and incubated with drugs for 24 h. Cells were harvested, washed with 1% FBS/phosphate-buffered saline (PBS), resuspended in 200 μL of PBS, fixed in 2 mL of ice-cold 100% ethanol, and stored overnight at −20 °C. The cells were washed and resuspended in 1 mL of 1% FBS/PBS, containing RNase (1 μg/mL) and propidium iodide (PI) (10 μg/mL), for 30 min at room temperature. DNA content was determined using […] by PI staining based on a total of 25,000 acquired events on a BD Biosciences Accuri C6 flow cytometer, and cell cycle distribution was analysed using FlowJo version 10.7.2.

[18] = test system: MCF-7; set-up: method as in earlier work; conditions: different proliferation assay, ref 21 (Finn et al.), read-out: IC50 proliferation, previously reported; cited from earlier work
[19] = test system: MDA-MB-231; conditions: data from Finn et al.
[20] = test system: MDA-MB-231 cells; experiment: Propidium iodide staining of dying cells; type: cell-based, human; conditions: 1 µM for 24 h
Procedure: Cells (1 × 10^6) were incubated with drugs for 24 h. Cells were next incubated with 50 μg/mL PI in growth media for 15 min at room temperature and protected from light. Cell death was monitored by fluorescence staining of DNA by PI and analysed by fluorescent microscopy using a Floid imaging station (460× magnification).

[21] = test system: MDA-MB-231; set-up: method as in earlier work; conditions: different proliferation assay, ref 21 (Finn et al.), read-out: IC50 proliferation, previously reported; cited from earlier work
[22] = test system: MCF-7; set-up: method as in PMID 30370249; conditions: read-out: IC50 proliferation; cited from earlier work
[23] = test system: MDA-MB-231; set-up: method as in PMID 30370249; conditions: read-out: IC50 proliferation; cited from earlier work
[24] = Behaviour in aqueous environments (solubility observation); type: physicochemical; conditions: high concentration

Structure (SMILES): CC1(C)C(/C=C/C2=C(Cl)C(=C/C=C3/N(CCCCCC(=O)O)c4ccccc4C3(C)C)/CCC2)=[N+](CCCCCC(=O)O)c2ccccc21.[Br-] [MHI-148, 1-(5-Carboxypentyl)-2-((E)-2-((E)-3-(2-((E)-1-(5-carboxypentyl)-3,3-dimethylindolin-2-ylidene)ethylidene)-2-chlorocyclohex-1-en-1-yl)vinyl)-3,3-dimethyl-3H-indol-1-ium bromide]
- IC50 ([1]; Cricetulus griseus, 72 h): > 2500 nM
- IC50 ([2]; Cricetulus griseus, 72 h): > 2500 nM
- IC50 ([3]; Cricetulus griseus, 72 h): > 2500 nM
- EC50 ([3]; Cricetulus griseus): > 2500 nM
- IC50 ([4]; Cricetulus griseus, 72 h): > 2500 nM
- EC50 ([4]; Cricetulus griseus): > 2500 nM
- IC50 ([5]; Cricetulus griseus, 72 h): > 2500 nM
- IC50 ([6]; Cricetulus griseus, 72 h): > 2500 nM
- IC50 ([7]; Homo sapiens, 72 h): > 2500 nM
- IC50 ([8]; Homo sapiens, 72 h): > 2500 nM
- IC50 ([9]; Homo sapiens, MCF7, 72 h): > 2500 nM
- IC50 ([10]; Homo sapiens, 72 h): > 2500 nM
- IC50 ([11]; Homo sapiens, 72 h): > 2500 nM
- IC50 ([12]; Homo sapiens, MCF7, 72 h): > 2500 nM
- Absorbance λmax [13]: 797 nm
- IC50 ([14]; Homo sapiens, 72 h): > 2500 nM
- EC50 ([14]; Homo sapiens): > 2500 nM
- IC50 ([15]; Homo sapiens, 72 h): > 2500 nM
- EC50 ([15]; Homo sapiens): > 2500 nM
- IC50 ([16]; Homo sapiens, MCF7, 72 h): > 2500 nM
- EC50 ([16]; Homo sapiens): > 2500 nM

Structure (SMILES): CC(=O)c1c(C)c2cnc(Nc3ccc(N4CCNCC4)cn3)nc2n(C2CCCC2)c1=O [Palbociclib]
- G1 cell cycle arrest (proportion of cells in G1) [17]: 87%
- IC50 [18]: 148 ± 25.7 nM
- IC50 ([3]; Cricetulus griseus, 72 h): > 2500 nM
- EC50 ([3]; Cricetulus griseus): > 2500 nM
- IC50 ([4]; Cricetulus griseus, 72 h): > 2500 nM
- EC50 ([4]; Cricetulus griseus): > 2500 nM
- Fold difference of the IC50 of the two cell lines (MDA-MB-231 vs MCF-7) [19]: 2.9 fold
- PI staining of dying cells (cytotoxic effect) [20]: minimal PI staining
- IC50 [21]: 432 ± 16.1 nM
- IC50 ([5]; Cricetulus griseus, 72 h): > 2500 nM
- IC50 ([6]; Cricetulus griseus, 72 h): > 2500 nM
- IC50 ([7]; Homo sapiens, 72 h): > 2500 nM
- IC50 ([8]; Homo sapiens, 72 h): > 2500 nM
- IC50 ([9]; Homo sapiens, MCF7, 72 h): > 2500 nM
- IC50 ([11]; Homo sapiens, 72 h): 72.2 ± 2.8 nM
- Fold difference of the IC50 of the two cell lines (MDA-MB-231 vs MCF-7) ([11]; thymidine incorporation, own data): 2.5 fold
- IC50 ([12]; Homo sapiens, MCF7, 72 h): 29.1 ± 8.6 nM
- IC50 ([14]; Homo sapiens, 72 h): > 2500 nM
- EC50 ([14]; Homo sapiens): > 2500 nM
- IC50 ([15]; Homo sapiens, 72 h): > 2500 nM
- EC50 ([15]; Homo sapiens): > 2500 nM
- IC50 ([16]; Homo sapiens, MCF7, 72 h): > 2500 nM
- EC50 ([16]; Homo sapiens): > 2500 nM

Structure (SMILES): CC(=O)O[C@H]1C(=O)[C@@]2(C)[C@H]([C@H](OC(=O)c3ccccc3)[C@]3(O)C[C@H](OC(=O)[C@H](O)[C@@H](NC(=O)c4ccccc4)c4ccccc4)C(C)=C1C3(C)C)[C@]1(OC(C)=O)CO[C@@H]1C[C@@H]2O [paclitaxel]
- IC50 [22]: 9.05 ± 0.04 nM
- IC50 [23]: 5.8 ± 1.13 nM

Structure (SMILES): CC(=O)c1c(C)c2cnc(Nc3ccc(N4CCN(C(=O)CCCCCN5/C(=C/C=C6\CCCC(/C=C/C7=[N+](CCCCCC(=O)N8CCN(c9ccc(Nc%10ncc%11c(C)c(C(C)=O)c(=O)n(C%12CCCC%12)c%11n%10)nc9)CC8)c8ccccc8C7(C)C)=C6Cl)C(C)(C)c6ccccc65)CC4)cn3)nc2n(C2CCCC2)c1=O.[Br-] [MHI-palbociclib]
- IC50 [1]: 217 ± 8.7 nM
- IC50 [2]: 205 ± 4.6 nM
- G1 cell cycle arrest (proportion of cells in G1) [17]: 55%
- Behaviour in aqueous environments [24]: rapidly precipitates in aqueous environments
- IC50 [3]: 401 ± 89 nM
- EC50 [3]: 471 nM
- IC50 [4]: 197 ± 15.7 nM
- EC50 [4]: 265 nM
- PI staining of dying cells (cytotoxic effect) [20]: increased PI staining and reduced cell number
- IC50 [5]: 164 ± 6.8 nM
- IC50 [6]: 187 ± 3.9 nM
- IC50 [7]: 171 ± 7.9 nM
- Growth inhibitory effect compared with combination of unconjugated palbociclib and MHI-148 ([8]; 2.5 μM, 3 days, t-test p = 0.003): significantly greater
- IC50 [8]: 683 ± 29.6 nM
- Growth inhibitory effect compared with combination of unconjugated palbociclib and MHI-148 ([9]; 2.5 μM, 3 days, t-test p = 0.002): significantly greater
- IC50 [9]: 506 ± 93.6 nM
- IC50 [10]: 170 ± 4.1 nM
- IC50 [11]: 170 ± 9.7 nM
- IC50 [12]: 215.4 ± 0.8 nM
- Absorbance λmax [13]: 800 nm
- IC50 [14]: 418 ± 68.3 nM
- EC50 [14]: 544 nM
- IC50 [15]: 1020 ± 150 nM
- EC50 [15]: 872 nM
- IC50 [16]: 845 ± 34.3 nM
